“Also recorded” adds a separate entry of the source.
Assays:
Assay type in all cases: in vivo, mouse
[1] = tested on: circulating EPCs (CXCR4+/VEGFR2+, Tie2+/VEGFR2+); assay: Circulating EPCs by flow cytometry in STZ-diabetic mice; details: diabetic mice treated with insulin
Procedure: Tie2-GFP, wild-type or chimeric FVB mice at 6-12 wk of age were treated with STZ (Sigma-Aldrich) to induce diabetes. Mice were rendered diabetic by i.p. administration of 60 mg/kg STZ in 50 mM sodium citrate, pH 4.5, daily for 5 d. Control mice were treated with daily injections of citrate buffer. Serum glucose was measured from the mouse tail vein using a glucometer. Once serum glucose reached 250 mg/dL, mice were followed with daily measurements for 1 wk prior to use in experiments. Serum glucose levels in STZ mice averaged 461 mg/dL with a range of 372-520 mg/dL, while control mice serum glucose mean level was 120 mg/dL with a range of 94-135 mg/dL. Wounds were induced on the ventral surface of the mouse thigh using a 4 mm punch biopsy. Full-thickness skin was removed, exposing the underlying muscle.
(§1) For HBO treatment, mice were placed in an animal hyperbaric chamber (Reneau Corp.) and subjected to 100% oxygen at 2.4 atmospheres absolute (ATA) for 90 min (Davis Wound Healing Protocol). To measure continuous, real-time BM NO levels, NO microelectrodes was inserted into the femoral marrow cavity as previously described. An osteotomy was created on the patellar surface of the murine femur using a 25 G beveled needle, allowing the electrode to be lowered into the marrow space when the animal was placed in the hyperbaric chamber. In some mice, pretreatment with L-NAME (40 mg/kg i.p.) (Sigma-Aldrich) was given 2 h prior to exposure to HBO.
Mobilization of EPCs into circulation was studied using flow cytometry as previously described. Cells isolated from mice were incubated with various Abs (BD Biosciences). Isotype matched mouse immunoglobulins served as controls. One million viable cells were analyzed per sample using an LSR2 multicolor flow cytometer (BD Biosciences). Data was analyzed using FlowJo software (Treestar, Inc.).
Physiologically, increased levels of BM NO result in activation of MMP-9 and conversion of kit ligand to its soluble form, ultimately generating EPC release into circulation. To study the effects of the hyperoxia-induced rise in NO levels in the marrow cavity on mobilization of EPCs into circulation, peripheral blood from diabetic mice was analyzed for EPCs using flow cytometry. A determination of whether hyperoxia, induced by HBO, increases the number of circulating EPCs in the peripheral blood of diabetic mice was made. Specifically, peripheral blood of diabetic mice was examined 18 h after a single HBO treatment. After excluding dead DAPI^+labeled cells, candidate lymphocytes, identified by their typical appearance on forward and side scatter, were gated and CD45^+/CD3^+cell populations were excluded. […] Therefore, several marker combinations were used to quantitate circulating EPCs. […]

[2] = tested on: NO synthesis in bone marrow (NOS); assay: Real-time bone marrow NO measurement with NO microelectrode during HBO; details: diabetic mice, insulin 6 U/kg twice/d i.p.
Procedure: as §1
In early studies, it was hypothesized that HBO2 augments stem cell mobilization because it stimulates •NO synthesis in the bone marrow, as •NO is known to play a central role with stem cell release from bone marrow. […] Mice were placed in a hyperbaric chamber where, while breathing air, baseline measurements were obtained. The chamber was then flushed with 100% O2 and compressed to 2.4 ATA O2.
Physiologically, the NO-mediated EPC release into circulation occurs in response to tissue-level hypoxia, although this compensatory response is inadequate in the setting of diabetes and results in severe defects in neovascularization and wound healing. […] Therefore, it was sought to utilize HBO as a tool to augment EPC release into circulation and further study both EPC mobilization and wound-homing mechanisms in the presence of diabetes. The goal was to determine whether hyperoxia stimulates NO production in the BM of diabetic mice via a NOS-mediated pathway and whether this pathway is impaired in diabetes. To test this hypothesis, Nafion polymer—coated NO microsensors were inserted into the femur BM space of both STZ induced diabetic and nondiabetic mice to measure real-time NO levels within the BM prior to and is during HBO-induced hyperoxia. […] It was speculated, that this was likely due to a compensatory effect from other NOS isoforms, and therefore the level of both iNOS and nNOS was examined in diabetic mice. […] However, no observation was made of any changes in the phosphorylation of these NOS isoforms.

[3] = tested on: BM eNOS phosphorylation; assay: Western blot of bone marrow eNOS and phospho-eNOS; details: diabetic mice treated with insulin
Procedure: Isolation of whole BM from FVB/NJ mice (n=12/group) was obtained by flushing harvested femurs and tibias with PBS/2% FBS. Red blood cells were removed by Red Cell Lysis Buffer (Sigma-Aldrich). Isolated BM cells were then lysed and protein concentrations were determined by DC protein assay (Bio-Rad Laboratories). Equal amounts of protein were subjected to 4-12% SDS gel electrophoresis under reducing conditions. The transferred PVDF membranes were probed with primary Ab (anti-eNOS and anti-phospho-eNOS (Ser^1177) (BD Biosciences) diluted 1:500 in 1% milk in TBST buffer and then incubated with HRP-conjugated second Ab (DakoCytomation Inc.). Proteins were visualized using enhanced chemiluminescence (Amersham Bioscience).
In diabetic patients, circulating EPCs are decreased in both number and function, and so it was hypothesized that BM eNOS activation is impaired in diabetes. To examine this question, BM was isolated from streptozocin-induced (STZ-induced) diabetic and nondiabetic mice and analyzed via Western blot for levels of total and phosphorylated eNOS protein. Although no changes in the amount of total eNOS protein were observed, the levels of biologically active phosphorylated eNOS protein were decreased in diabetic mice as compared with nondiabetic controls (FIG. 12A). […]

“insulin: human insulin (NPH), 6 U/kg twice/d i.p.” was tested, and the EPC mobilization [1] was “little effect; also recorded: does not increase”, the “reversal of impaired BM NO production” value [2] was “little effect” and the “reversal of impaired BM NO production” value ([2]; listed as Insulin) was “did not reverse”. For the same substance, the “reversal of impaired BM eNOS phosphorylation” value [3] was “little effect” and the “reversal of impaired BM eNOS phosphorylation” value ([3]; listed as Insulin) was “failed to restore”.

Reference: US8440617B2, “Hyperbaric treatment in wound healing” (The Trustees of the University of Pennsylvania, priority 2007, dated 2013)
